Laboratory results: patent US7671069B2, “Tricyclic, heteroaromatic compounds modulating CXCR4 and/ or CXCR7” (ChemoCentryx, Inc., priority 2006, dated 2010)

Each compound was assayed against T1, CXCR4 (Homo sapiens, UniProt P61073) (assay: Inhibition of SDF-1 ligand binding or chemotaxis assay for CXCR4). Conditions: first (or only) activity listed in CXCR4/CXCR7; chemotaxis assay or binding assays.
T1 construct: endogenous in cells; host or cells: CEM-Nkr, CCRF-CEM (ATCC #CCL-119), Jurkat (ATCC #TIB-152), Molt-4 (ATCC# CRL-1582); IL-2 stimulated lymphocytes from human blood
T1 sequence (P61073 whole entry): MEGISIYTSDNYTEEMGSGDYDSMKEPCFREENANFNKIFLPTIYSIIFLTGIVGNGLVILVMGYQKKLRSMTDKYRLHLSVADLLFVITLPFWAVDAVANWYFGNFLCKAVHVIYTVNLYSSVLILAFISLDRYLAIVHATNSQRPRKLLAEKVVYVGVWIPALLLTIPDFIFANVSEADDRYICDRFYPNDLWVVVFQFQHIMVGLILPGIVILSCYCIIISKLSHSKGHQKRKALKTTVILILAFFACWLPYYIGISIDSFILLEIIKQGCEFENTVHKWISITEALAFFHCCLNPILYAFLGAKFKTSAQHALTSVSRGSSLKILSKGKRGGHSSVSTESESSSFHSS
Description: CEM-Nkr, CCRF-CEM (ATCC #CCL-119), Jurkat (ATCC #TIB-152), Molt-4 (ATCC# CRL-1 582), cell lines, all endogenously expressing CXCR4, were used in compound screening and subsequent assays. These cell lines were cultured as a suspension in RPMI-1640 medium supplemented with 2 mM L-glutamine, 1.5 g/L sodium bicarbonate, 4.5 g/L glucose, 10 mM HEPES, 1 mM sodium pyruvate, and 10% FBS. Cells were grown under 5% CO2/95% air, 100% humidity at 37° C. and subcultured twice weekly at 1:6 (cells were cultured at a density range of 1×10^5 to 2×10^6 cells/mL) and harvested at 1×10^6 cells/mL.
Il-2 stimulated lymphocytes were isolated from fresh human blood using density separation and centrifigation. Briefly, whole blood is incubated with equal parts 3% dextran and allowed to separate for 45 minutes. After separation, the top layer is then layered on top of 15 mls of Ficoll (15 mls of Ficoll for every 30 mls of blood suspension) and centrifuged for 30 minutes at 400×g with no brake. The pellet at the bottom of the tube is then isolated and resuspended into PharmLyse RBC Lysis Buffer (BD Biosciences, San Jose, Calif.) after which the sample is again centrifuged for 10 minutes at 400×g with brake. The remaining cell pellet is resuspended as appropriate and stimulated with PHA for 2 days, followed by culturing in the presence of human IL-2 cytokine.
Cells were centrifuged and resuspended in assay buffer (20 mM HEPES pH 7.1, 140 mM NaCl, 1 mM CaCl2, 5 mM MgCl2, and with 0.2% bovine serum albumin) to a concentration of 4×10^6 cells/mL for cell lines. Binding assays were set up as follows. 0.15 mL of cells (6×10^5 cells/well) was added to the assay plates containing the compounds, giving a final concentration of ˜2-10 μM each compound for screening (or part of a dose response for compound IC50 determinations). Then 0.1 mL of ^125I labeled SDF-1α (obtained from Perkin Elmer Life Sciences, Boston, Mass.) diluted in assay buffer to a final concentration of ˜[…], yielding ˜30,000 cpm per well, was added, the plates sealed and incubated for approximately 3 hours at 4° C. on a shaker platform. Reactions were aspirated onto GF/B glass filters pre-soaked in 0.3% polyethyleneimine (PEI) solution, on a vacuum cell harvester (Packard Instruments; Meriden, Conn.). Scintillation fluid (40 μl; Microscint 20, Packard Instruments) was added to each well, the plates were sealed and radioactivity measured in a Topcount scintillation counter (Packard Instruments). Control wells containing either diluent only (for total counts) or excess SDF1a (1 μg/mL, for non-specific binding) were used to calculate the percent of total inhibition for compound. The computer program Prism from Graph Pad, Inc. (San Diego, Calif.) was used to calculate IC50 values. IC50 values are those concentrations required to reduce the binding of radiolabeled SDF-1α to the receptor by 50%. (For further descriptions of ligand binding and other functional assays, see Dairaghi, et al., J. Biol. Chem. 274:21569-21574 (1999), Penfold, et al., Proc. Natl. Acad. Sci. USA. 96:9839-9844 (1999), and Dairaghi, et al,. J. Biol. Chem. 272:28206-28209 (1997)).
Chemotaxis assays were performed using 5 μm pore polycarbonate, polyvinylpyrrolidone-coated filters in 96-well chemotaxis chambers (Neuroprobe; Gaithersburg, Md.) using chemotaxis buffer (Hank's balanced salt solution (HBSS) and 1% FBS). CXCR4 ligand (i.e., SDF1a, R&D Systems; Minneapolis, Minn.) are use to evaluate compound mediated inhibition of CXCR4 mediated migration. Other chemokines (i.e., TECK; R&D Systems; Minneapolis, Minn.) are used as specificity controls. The lower chamber was loaded with 29 μl of chemokine (i.e., 0.1 nM SDF1a); the top chamber contained 50,000 Jurkat cells or IL-2 lymphocytes in 20 μl. […]
In the case of Cc1ccc2oc(=O)c3cnn(CC(=O)NCCN(C)C4CCCCC4)c3c2c1 [Compound 1], the IC50 is reported as 1000 to 10000 nM.
Compound Cc1ccc2c(c1)-c1c(cnn1CC(=O)NCCN(C)C1CCCCC1)CO2 [Compound 2] has an IC50 of 1000 to 10000 nM.
Cc1ccc2c(c1)-c1nn(CC(=O)NCCN(C)C3CCCCC3)cc1CO2 [Compound 3] was tested, and the IC50 was 1000 to 10000 nM.
With CN(CCNC(=O)Cn1ncc2c1-c1cc(Cl)ccc1OC2)C1CCCCC1 [Compound 4] the IC50 was over 10000 nM.
Cc1ccc2c(c1)-c1c(cnn1CC(=O)N1CCN(C3CCCCCC3)CC1)CO2 [Compound 5] showed an IC50 of 1000 to 10000 nM.
Work on CN(CCNC(=O)Cn1ncc2c1-c1ccccc1CC2)C1CCCCC1 [Compound 6] yielded an IC50 of 1000 to 10000 nM.
Compound COc1ccc2c(c1)-c1c(cnn1CC(=O)NCCN(C1CCCCC1)C1CCCCC1)CO2 [Compound 7] has an IC50 of 1000 to 10000 nM.
Compound Cc1ccc2c(c1)c1c(cnn1CC(=O)NCCN(C)C1CCCCC1)c(=O)n2C [Compound 8] has an IC50 of 1000 to 10000 nM.
For COc1ccc2nc(OC)c3cnn(CC(=O)NCCN(C)C4CCCCC4)c3c2c1 [Compound 9], the IC50 was under 1000 nM.
With CN(CCNC(=O)Cn1ncc2[nH]c(=O)c3ccccc3c21)C1CCCCC1 [Compound 10] the IC50 was over 10000 nM.
COc1nc2cnn(CC(=O)NCCN(C)C3CCCCC3)c2c2ccccc12 [Compound 11] gave an IC50 of 1000 to 10000 nM.
In the case of COc1ccc2c(c1)c1c(cnn1CC(=O)NCCN(C)C1CCCCC1)c(=O)n2CC(=O)OC(C)(C)C [Compound 12], the IC50 is reported as 1000 to 10000 nM.
Compound COc1ccc2c(c1)c1c(cnn1CC(=O)NCCN1CCCC3CCCCC31)c(=O)n2C (stereo not drawn) [Compound 13] has an IC50 of under 1000 nM.
For CN(CCCNC(=O)Cn1ncc2cc3ccccc3nc21)C1CCCCC1 [Compound 14], the IC50 was 1000 to 10000 nM.
Work on COc1ccc2c(c1)c1c(cnn1C(C)C(=O)NCCN(C)C1CCCCC1)c(=O)n2C (stereo not drawn) [Compound 15] yielded an IC50 of 1000 to 10000 nM.
COc1ccc2c(c1)c1c(cnn1CC(=O)NCCN1CCC3CCCCC3C1)c(=O)n2C (stereo not drawn) [Compound 16] was tested, and the IC50 was under 1000 nM.
COc1ccc2c(c1)c1c(cnn1CC(=O)NCC1CCCN(C3CCCCC3)C1)c(=O)n2C (stereo not drawn) [Compound 17] was tested, and the IC50 was over 10000 nM.
Work on COc1ccc2c(c1)c1c(cnn1CC(=O)NCCN(C)C1CCOCC1)c(=O)n2C [Compound 18] yielded an IC50 of over 10000 nM.
With CN(CCNC(=O)Cn1ncc2c1-c1ccc(C#N)cc1OC2)C1CCCCC1 [Compound 19] the IC50 was under 1000 nM.
For COc1ccc2c(c1)-c1c(cnn1CC(=O)NCCN(C)C1CCCC1)CO2 [Compound 20], the IC50 was 1000 to 10000 nM.
In the case of CN(CCNC(=O)Cn1ncc2c(=O)oc3ccccc3c21)C1CCCCC1 [Compound 21], the IC50 is reported as over 10000 nM.
In the case of CN(CCNC(=O)Cn1ncc2c(=O)oc3ccc(Cl)cc3c21)C1CCCCC1 [Compound 22], the IC50 is reported as 1000 to 10000 nM.
Cc1cc2c(cc1Cl)-c1c(cnn1CC(=O)NCCN(C)C1CCCCC1)CO2 [Compound 23] gave an IC50 of over 10000 nM.
With COc1ccc2c(c1)-c1c(cnn1CC(=O)NCCN(C)C1CCCCCCC1)CO2 [Compound 25] the IC50 was 1000 to 10000 nM.
For COc1ccc2c(c1)-c1c(cnn1CC(=O)NCCN(C)C1CCCCCC1)CO2 [Compound 26], the IC50 was over 10000 nM.
COc1ccc2c(c1)-c1c(cnn1C(=O)NCCN1CCC[C@@H]3CCCC[C@@H]31)CO2 [Compound 27] gave an IC50 of 1000 to 10000 nM.
COc1ccc2c(c1)c1c(cnn1C(=O)NCCN1CCC[C@@H]3CCCC[C@H]31)c(=O)n2C [Compound 28] showed an IC50 of under 1000 nM.
Work on CCN(CCNC(=O)Cn1ncc2c(=O)n(C)c3ccc(OC)cc3c21)C1CCCCC1 [Compound 29] yielded an IC50 of 1000 to 10000 nM.
CCn1c(=O)c2cnn(CC(=O)NCCN(C)C3CCCCC3)c2c2cc(OC)ccc21 [Compound 33] gave an IC50 of under 1000 nM.
COc1ccc2c(c1)c1c(cnn1CC(=O)NCCN1CC[C@@H]3CCCC[C@H]3C1)c(=O)n2C [Compound 34] was tested, and the IC50 was under 1000 nM.
COc1ccc2c(c1)c1c(cnn1CC(=O)NCCCN(C)C1CCCCC1)c(=O)n2C [Compound 35] showed an IC50 of under 1000 nM.
In the case of COc1nc2ccc(C)cc2c2c1cnn2CC(=O)NCCN(C)C1CCCCC1 [Compound 36], the IC50 is reported as 1000 to 10000 nM.
Compound CCN(CCCNC(=O)Cn1ncc2c(=O)n(C)c3ccc(OC)cc3c21)C1CCCCC1 [Compound 37] has an IC50 of under 1000 nM.
COc1ccc2c(c1)c1c(cnn1C(C)C(=O)NCCCN(C)C1CCCCC1)c(=O)n2C (stereo not drawn) [Compound 38] gave an IC50 of 1000 to 10000 nM.
COc1ccc2c(c1)-c1c(cnn1CC(=O)NCCN(C)C1CCCCC1)C(OCC(=O)OC(C)(C)C)N2 (stereo not drawn) [Compound 39] was tested, and the IC50 was 1000 to 10000 nM.
With COc1ccc2c(c1)c1c(cnn1CC(=O)NCCN1CCCC(C)C1)c(=O)n2C (stereo not drawn) [Compound 40] the IC50 was 1000 to 10000 nM.

Each compound was assayed against T2, CCXCKR2 (CXCR7) (Homo sapiens, UniProt P25106) (assay: Displacement of 125I SDF-1 from CCXCKR2 (CXCR7) on MCF-7 and/or MDA-MB-435S cells). Conditions: second activity CXCR4/CXCR7.
T2 construct: expressed in transfected cells; host or cells: MDA-MB-435S transfected with pcDNA3.1(+)-hRDC1 (G418 selected) and/or MCF-7 (endogenous receptor)
T2 sequence (P25106 whole entry): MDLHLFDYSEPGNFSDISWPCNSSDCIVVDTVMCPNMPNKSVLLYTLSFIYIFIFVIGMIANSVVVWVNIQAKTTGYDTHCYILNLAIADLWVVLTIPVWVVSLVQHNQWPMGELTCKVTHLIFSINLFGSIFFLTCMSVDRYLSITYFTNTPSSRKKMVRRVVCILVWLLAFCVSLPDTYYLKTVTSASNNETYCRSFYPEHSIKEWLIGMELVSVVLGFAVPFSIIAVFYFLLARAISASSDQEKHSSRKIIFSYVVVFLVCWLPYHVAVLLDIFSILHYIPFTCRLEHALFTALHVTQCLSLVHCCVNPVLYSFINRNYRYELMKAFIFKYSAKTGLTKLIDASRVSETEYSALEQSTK
Assay type: binding
Description: The ability of the compounds to displace the labeled chemokine from the CCXCKR2 receptor sites at multiple concentrations was then determined with the screening process.
Reagents and Cells. […] SDF-1 was purchased from Perkin-Elmer Life Sciences, Inc. (Boston, Mass.). The MCF-7 (adenocarcinoma; mammary gland) cell line was obtained from the American Type Culture Collection (Manassas, Va.) or and was cultured in DMEM (Mediatech, Herudon, Va.) supplemented with 10% fetal bovine serum (FBS) (HyClone Logan, Utah) and bovine insulin (0.01 mg/mL) (Sigma, St. Louis, Mo.) at 37° C. in a humidified incubator at a 5% CO2/air mixture. CCXCKR2 transfected MDA-MB-435S were produced as described below. MDA-MB-435S human breast cancer line, was purchased from ATCC, and cultured in DMEM/10% FBS medium. The complete coding sequence of the gene encoding CCXCKR2 (a.k.a.CXCR7, hRDC1), was isolated from MCF-7 cells using μMACs mRNA isolation kit (Miltenyi Biotec, Auburn, Calif.). DNA contamination was removed by DNase digestion via RNeasy columns (Qiagen, Inc., Valencia, Calif.) and cDNA was generated using GeneAmp RNA PCR Core Kit (Applied Biosystems, Foster City, Clif.). PCR of cDNA samples was performed using Taq PCR Master Mix kit (Qiagen, Inc.) and hRDC1 primers harboring 5′ and 3′ Not I sites (hRDC1F 5′ […]-3′ (SEO ID NO:11), hRDC1R 5′-[…]-3′ (SEO ID NO: 12)) Not I digested PCR product was ligated into Not I digested pcDNA3.1 (+)(Invitrogen, Carlsbad, Calif.) and screened for orientation and sequence confirmed. Plasmid DNA was then isolated from overnight bacterial cultures by Maxiprep (Qiagen, Inc.). Plasmid DNA (10μg) was added to MDA-MB-435s cells and cells were electroporated (0.22 kV, 960uF) via Gene Pulser (Biorad laboratories, Hercules, Calif.). 48 hr post-electroporation, cells were transferred to selection medium (1000 ug/ml G418).
Binding Analysis. Target compounds were tested to determine their ability to bind with CCXCKR2 sites on MCF-7 and/or MDA-MB-435S cells. Efficiency-maximized radioligand binding using filtration protocols as described in Dairaghi D J, et al., HHV8-encoded vMIP-I selectively engages chemokine receptor CCR5. Agonist and antagonist profiles of viral chemokines, J. Biol. Chem. Jul. 30, 1999; 274(31): 21569-74 and Gosling J, et al., Cutting edge: identification of a novel chemokine receptor that binds dendritic cell-i and T cell-active chemokines including ELC, SLC, and TECK., J. Immunol. Mar. 15, 2000; 164(6):2851-6 was used.
In these assays, MCF-7 and/or MDA-MB-435S cells were interrogated with the target compounds and the ability of these compounds to displace ^125I radiolabeled SDF-1 was assessed using the protocol described in Dairaghi and Gosling. The target compounds were added to the plate to the indicated concentration and were then incubated with cells followed by the addition of radiolabeled chemokine (^125I SDF-1) for 3 hr at 4° C. in the following binding medium (25 mM HEPES, 140 mM NaCl, 1 mM CaCl2, 5 mM MgCl2 and 0.2% bovine serum albumin, adjusted to pH 7.1). All assays were then incubated for 3 hrs at 4° C. with gentle agitation. Following incubation in all binding assays, reactions were aspirated onto PEI-treated GF/B glass filters (Packard) using a cell harvester (Packard) and washed twice (25 mM HEPES, 500 mM NaCl, 1 mM CaCl2, 5 mM MgCl2, adjusted to pH 7.1). Scintillant (MicroScint 10, Packard) was added to the wells, and the filters were counted in a Packard Topcount scintillation counter. Data were analyzed and plotted using Prism (GraphPad Prism version 3.0a for Macintosh, GraphPad Software, www.graphpad.com).
Cc1ccc2oc(=O)c3cnn(CC(=O)NCCN(C)C4CCCCC4)c3c2c1 [Compound 1] showed an IC50 of under 1000 nM.
In the case of Cc1ccc2c(c1)-c1c(cnn1CC(=O)NCCN(C)C1CCCCC1)CO2 [Compound 2], the IC50 is reported as under 1000 nM.
With COc1ccc2c(c1)c1c(cnn1CC(=O)NCCN1CCCC3CCCCC31)c(=O)n2C (stereo not drawn) [Compound 13] the IC50 was under 1000 nM.
